Results reported in US6737383B1, “Herbicidal oxadiazolidines” (priority 1999, dated 2004).

Columns and labels:
[1] = test system: winter wheat; test: Test E winter wheat; assay type: in vivo, Triticum aestivum; conditions: Postemergence
Outline: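 Each compound, carried in a non-phytotoxic solvent blend including surfactant, was applied (postemergence: over the top of young plants at 1- to 4-leaf stage). Plants stayed in the greenhouse about 21 to 28 days before visual comparison with untreated controls.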

[2] = test system: green foxtail; test: Test E green foxtail; assay type: in vivo, Setaria viridis; conditions: Preemergence
[3] = test system: wild oat; test: Test E wild oat; assay type: in vivo, Avena fatua; conditions: Preemergence
[4] = test system: bamyardgrass; test: Test B flood test barnyardgrass; assay type: in vivo, Echinochloa crus-galli
Outline: (§1)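 Flood test on plants grown to the 2-leaf stage; treated plants kept in greenhouse twelve to sixteen days, then visually rated against controls on a 0 (no effect) to 10 (complete control) scale.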

[5] = test system: Italian ryegrass; test: Test E Italian ryegrass; assay type: in vivo, Lolium multiflorum; conditions: Preemergence
[6] = test system: morningglory; test: Test B pre/postemergence morningglory; assay type: in vivo, Ipomoea hederacea
Outline: (§2)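 Test chemicals in a non-phytotoxic solvent mixture with surfactant were sprayed preemergence onto planted seeds and postemergence onto plants 2 to 18 cm tall (1- to 4-leaf stage). After twelve to sixteen days in a greenhouse, injury was visually rated against untreated controls from 0 (no effect) to 10 (complete control).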

[7] = test system: winter wheat; test: Test E winter wheat; assay type: in vivo, Triticum aestivum; conditions: Preemergence
[8] = test system: blackgrass; test: Test E blackgrass; assay type: in vivo, Alopecurus myosuroides; conditions: Preemergence
[9] = test system: smallflower flatsedge; test: Test B flood test smallflower flatsedge; assay type: in vivo, Cyperus difformis
Outline: as §1

[10] = test system: rape; test: Test B pre/postemergence rape; assay type: in vivo, Brassica napus
Outline: as §2

[11] = test system: winter barley; test: Test E winter barley; assay type: in vivo, Hordeum vulgare; conditions: Preemergence
[12] = Rate 500 g/ha, 0 to 100 scale where 0 is no effect and 100 is complete control
[13] = Rate 1000 g/ha, 0 to 100 scale, 0 no effect, 100 complete control
[14] = Pre-emergence, Rate 1000 g/ha, scale 0 to 10 (0 no effect, 10 complete control)
[15] = Rate 62 g/ha, headed Pre-emergence (flood test species), scale 0 to 10 (0 no effect, 10 complete control)
[16] = Rate 125 g/ha, Pre-emergence, flood test species, scale 0 to 10 where 0 is no effect and 10 is complete control
[17] = Rate 250 g/ha, Pre-emergence, flood-test species, scale 0 to 10, 0 is no effect, 10 is complete control
[18] = Rate 500 g/ha, Pre-emergence, flood test species, scale 0 to 10 (0 no effect, 10 complete control)
[19] = Preemergence, Rate 62 g/ha, scale of 0 to 10 where 0 is no effect and 10 is complete control
[20] = Preemergence, Rate 250 g/ha, scale of 0 to 10 where 0 is no effect and 10 is complete control
[21] = Preemergence, Rate 500 g/ha, scale of 0 to 10 where 0 is no effect and 10 is complete control
[22] = Rate 125 g/ha, Postemergence, scale of 0 to 10 where 0 is no effect and 10 is complete control
[23] = Rate 125 g/ha, Preemergence, scale of 0 to 10 where 0 is no effect and 10 is complete control
[24] = Rate 250 g/ha, Postemergence, scale of 0 to 10 where 0 is no effect and 10 is complete control
[25] = Rate 500 g/ha, Postemergence, scale 0 to 10, 0 no effect, 10 complete control
[26] = Rate 125 g/ha, 0 to 100 scale (0 no effect, 100 complete control)
[27] = Rate 62 g/ha, Postemergence, scale 0 to 10, 0 no effect, 10 complete control

CCN(C(=O)n1oc(=O)n(N(C)C)c1=O)C1CCCCC1 [Compound 274]
30: Wheat (winter) plant response rating ([1]; Rate 250 g/ha, 0 to 100 scale where 0 is no effect and 100 is complete control) | Plant response rating, Green foxtail [2, 12] | Plant response rating, I. Ryegrass [5, 12] | Wheat (winter) plant response rating (0 to 100 scale) ([7]; Rate 250 g/ha) | Plant response rating, Blackgrass [8, 12]
65: Plant response rating, Blackgrass [8, 13]
60: Plant response rating, Wheat (winter) ([1]; Rate 1000 g/ha, 0 to 100 scale where 0 is no effect and 100 is complete control) | Plant response rating, Wild oat [3, 13] | Plant response rating, Barley (winter) [11, 12]
50: Plant response rating, Wheat (winter) ([1]; Rate 500 g/ha, 0 to 100 scale, 0 is no effect, 100 is complete control) | Plant response rating, Wild oat [3, 12] | Plant response rating, I. Ryegrass [5, 13] | Plant response rating, Wheat (winter) [7, 12] | Plant response rating, Wheat (winter) [7, 13] | Barley (winter) plant response rating (0 to 100 scale) ([11]; Rate 250 g/ha)
0: Barnyardgrass plant response rating [4, 14] | Barnyardgrass plant response rating [4, 15] | Barnyardgrass plant response rating [4, 16] | Barnyardgrass plant response rating [4, 17] | Barnyardgrass plant response rating [4, 18] | Barnyardgrass plant response rating ([4]; Rate 2000 g/ha, Pre-emergence (as headed), scale 0 to 10, 0 no effect, 10 complete control) | Morningglory plant response rating [6, 19] | Morningglory plant response rating [6, 20] | Plant response rating, Morningglory [6, 21] | Morningglory plant response rating [6, 22] | Morningglory plant response rating [6, 23] | Plant response rating, Morningglory [6, 24] | Morningglory plant response rating [6, 25] | Blackgrass plant response rating (0 to 100 scale) ([8]; Rate 250 g/ha) | S. Flatsedge plant response rating [9, 14] | S. Flatsedge plant response rating [9, 15] | S. Flatsedge plant response rating [9, 16] | S. Flatsedge plant response rating [9, 17] | S. Flatsedge plant response rating [9, 18] | S. Flatsedge plant response rating ([9]; Rate 2000 g/ha, Pre-emergence (as headed), scale 0 to 10) | Rape plant response rating [10, 19] | Rape plant response rating [10, 20] | Plant response rating, Rape [10, 21] | Rape plant response rating [10, 22] | Rape plant response rating [10, 23] | Plant response rating, Rape [10, 24] | Rape plant response rating [10, 25]
55: Plant response rating, Barley (winter) [11, 13]
40: Plant response rating, Green foxtail [2, 13] | Wild oat plant response rating (0 to 100 scale) ([3]; Rate 250 g/ha)
20: Green foxtail plant response rating (0 to 100 scale) ([2]; Rate 250 g/ha) | I. Ryegrass plant response rating (0 to 100 scale) ([5]; Rate 250 g/ha)

CC(C)N(C(=O)n1oc(=O)n(C2CC2)c1=O)c1ccc(F)cc1F [Compound 299]
40: Plant response rating, Barley (winter) [11, 26]
5: Morningglory plant response rating [6, 22]
8: Rape plant response rating (0 to 10 scale) ([10]; Preemergence, Rate 125 g/ha)
70: Plant response rating, Wheat (winter) ([1]; Rate 250 g/ha, 0 to 100 scale, 0 is no effect, 100 is complete control) | Plant response rating, Wild oat ([3]; Rate 250 g/ha, 0 to 100 scale) | Plant response rating, I. Ryegrass [5, 26]
60: Plant response rating, Wheat (winter) ([1]; Rate 125 g/ha, 0 to 100 scale, 0 is no effect, 100 is complete control) | Plant response rating, Blackgrass [8, 26]
3: Morningglory plant response rating [6, 27] | Rape plant response rating [10, 22]
10: Rape plant response rating [10, 20] | Rape plant response rating [10, 21]
9: Barnyardgrass plant response rating [4, 18]
100: Plant response rating, Green foxtail [2, 26] | Plant response rating, Green foxtail ([2]; Rate 250 g/ha, 0 to 100 scale) | Plant response rating, Blackgrass ([8]; Rate 250 g/ha, 0 to 100 scale)
85: Plant response rating, I. Ryegrass ([5]; Rate 250 g/ha, 0 to 100 scale)
50: Plant response rating, Wheat (winter) [7, 26] | Plant response rating, Barley (winter) ([11]; Rate 250 g/ha, 0 to 100 scale, 0 no effect, 100 complete control)
2: Barnyardgrass plant response rating [4, 16] | Morningglory plant response rating (0 to 10 scale) ([6]; Preemergence, Rate 125 g/ha)
6: Barnyardgrass plant response rating [4, 17] | Morningglory plant response rating [6, 20] | Plant response rating, Morningglory [6, 24]
65: Plant response rating, Wild oat [3, 26] | Plant response rating, Wheat (winter) ([7]; Rate 250 g/ha, 0 to 100 scale)
0: Barnyardgrass plant response rating [4, 15] | Morningglory plant response rating [6, 19] | S. Flatsedge plant response rating [9, 15] | S. Flatsedge plant response rating [9, 16] | S. Flatsedge plant response rating [9, 17] | S. Flatsedge plant response rating [9, 18]
7: Morningglory plant response rating [6, 21] | Plant response rating, Rape [10, 24]
1: Rape plant response rating [10, 19] | Rape plant response rating [10, 27]
